The values that follow come from paper PMC4078008, “Exploring metabolic engineering design principles for the photosynthetic production of lactic acid by Synechocystis sp. PCC6803” (Biotechnology for Biofuels, 2014).

The target of test [1] is T1, PK-F of E. coli (Escherichia coli, UniProt P0AD61).
T1 construct: gene pykF; codon-optimized gene expressed in Synechocystis sp; PCC6803 (strain SYW004); cell-free extract
The test is described as follows: LDH-coupled PK assay in cell-free extract with and without FBP. Format: biochemical. The note with it: activator; 3 mM FBP, 50 mM Tris-HCl pH 7.6, 5 mM MgCl2, 100 mM KCl, 0.6 mM ADP, 5 mM PEP, 30 °C.

The target in test [2] is T2, L-LDH of L. lactis (LlLDH) (Lactococcus cremoris, UniProt A2RKA4).
T2 construct: full-length, codon-optimized gene expressed in Synechocystis sp; PCC6803; cell-free extract
T2 sequence (A2RKA4 1-325): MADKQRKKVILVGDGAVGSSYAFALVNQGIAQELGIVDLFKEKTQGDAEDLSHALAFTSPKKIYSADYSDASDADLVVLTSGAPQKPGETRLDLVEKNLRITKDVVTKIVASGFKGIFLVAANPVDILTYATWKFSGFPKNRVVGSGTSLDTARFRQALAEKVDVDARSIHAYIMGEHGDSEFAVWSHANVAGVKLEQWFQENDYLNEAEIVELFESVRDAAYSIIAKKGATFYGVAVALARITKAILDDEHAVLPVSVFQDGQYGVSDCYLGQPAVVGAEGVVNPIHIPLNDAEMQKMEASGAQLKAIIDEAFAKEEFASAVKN
The experiment in a line: NAD(P)H consumption at […] nm in cell-free extract. Type of test: biochemical. The note with it: 100 mM Tris-HCl pH 7.2, 2.5 mM MgCl2, 3 mM FBP, 300 uM NADH, 30 mM pyruvate, 30 °C.

T1 sequence (P0AD61 whole entry): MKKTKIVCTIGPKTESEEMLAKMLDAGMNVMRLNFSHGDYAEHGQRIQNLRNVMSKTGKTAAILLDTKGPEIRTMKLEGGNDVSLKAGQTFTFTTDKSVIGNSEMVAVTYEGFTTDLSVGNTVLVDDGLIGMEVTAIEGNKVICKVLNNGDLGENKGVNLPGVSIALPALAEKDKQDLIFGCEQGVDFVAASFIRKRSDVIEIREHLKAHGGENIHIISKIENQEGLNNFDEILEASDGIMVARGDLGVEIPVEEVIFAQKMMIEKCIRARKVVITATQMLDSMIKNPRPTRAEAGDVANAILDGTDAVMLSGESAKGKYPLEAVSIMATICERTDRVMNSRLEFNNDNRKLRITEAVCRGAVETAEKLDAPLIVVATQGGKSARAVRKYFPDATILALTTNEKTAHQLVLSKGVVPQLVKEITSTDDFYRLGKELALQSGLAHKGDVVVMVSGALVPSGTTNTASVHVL

As for `O=P(O)(O)OC[C@H]1OC(O)(COP(=O)(O)O)[C@@H](O)[C@@H]1O` (some centres unmarked) [FBP], the “relative activity with and without FBP” value in test [1] is “The activity assays confirmed the FBP dependency of the selected PK-F enzymes”.

Consider `NC(=O)C1=CN([C@@H]2O[C@H](COP(=O)(O)OP(=O)(O)OC[C@H]3O[C@@H](n4cnc5c(N)ncnc54)[C@H](O)[C@@H]3O)[C@@H](O)[C@H]2O)C=CC1` [NADH], for which the relative activity entry in test [2] is “Both show similar activity for NADH (Figure 5C) and similar expression levels”.
